Test [1] concerns the target Serum paraoxonase/arylesterase 1 (Homo sapiens) (UniProt P27169). Put plainly: Binding affinity to recombinant paraoxonase-1 (unknown origin) expressed in Escherichia coli after 5 mins by Trp-fluorescence quenching method.
Test [2] shares this target. Briefly: Binding affinity to recombinant paraoxonase-1 (unknown origin) expressed in Escherichia coli.
For test [3] the target is unchanged. Briefly: Activation of recombinant paraoxonase-1 (unknown origin) expressed in Escherichia coli assessed as delaying of Cu2+-induced LDL oxidation time after 15 mins by UV ELISA.

Activity calls are given as the source filed them. No cut-off for these calls is given here.

Serum paraoxonase/arylesterase 1 (Homo sapiens), sequence (P27169 whole entry): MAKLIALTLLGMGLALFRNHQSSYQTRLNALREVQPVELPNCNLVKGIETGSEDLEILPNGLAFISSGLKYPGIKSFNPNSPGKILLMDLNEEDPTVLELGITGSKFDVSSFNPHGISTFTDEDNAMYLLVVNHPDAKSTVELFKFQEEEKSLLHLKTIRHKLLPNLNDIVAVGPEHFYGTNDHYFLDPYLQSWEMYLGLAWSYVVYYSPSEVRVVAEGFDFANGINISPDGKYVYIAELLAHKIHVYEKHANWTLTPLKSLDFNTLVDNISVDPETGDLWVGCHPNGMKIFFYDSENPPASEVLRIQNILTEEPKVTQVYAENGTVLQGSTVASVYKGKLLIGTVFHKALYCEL

Turning to `O=c1c(-c2ccc(O)cc2)coc2cc(O)cc(O)c12`, the KSV in test [1] was 0.64 ×10⁵ /M. The Ka in test [2] was 0.86 ×10⁵ /M.
On the same counts, the results for `O=c1cc(-c2ccc(O)c(O)c2)oc2cc(O)ccc12` are 0.87 ×10⁵ /M and 1.07 ×10⁵ /M.
With `Oc1cc(O)c2c(c1)OC(c1ccc(O)c(O)c1)C(O)C2` (stereo not given), the result in test [3] was inactive.
As for `O=C1C[C@@H](c2ccc(O)cc2)Oc2cc(O)cc(O)c21`, in test [1], the KSV was found to be 0.35 ×10⁵ /M. For the same compound, the Ka in test [2] amounted to 0.68 ×10⁵ /M.
For `O=c1cc(-c2ccc(O)c(O)c2)oc2cc(O)cc(O)c12` the same measures were 1.34 ×10⁵ /M and 1.33 ×10⁵ /M.
For `O=c1c(O)c(-c2ccc(O)cc2)oc2cc(O)cc(O)c12` the same measures were 1.22 ×10⁵ /M and 1.43 ×10⁵ /M.
With `CC1(C)C=Cc2c(ccc3c2OC[C@@H](c2ccc(O)cc2O)C3)O1`, in test [1], the KSV is 1.93 ×10⁵ /M. Further, in test [2], the Ka worked out at 2.4 ×10⁵ /M. The TIME in test [3] came to 1.33 h.
In the case of `O=c1c(O)c(-c2ccc(O)c(O)c2)oc2cc(O)cc(O)c12`, the KSV in test [1] worked out at 1.25 ×10⁵ /M. The Ka in test [2] came out at 1.28 ×10⁵ /M. Besides, the result in test [3] was Active.
In the case of `O=c1cc(-c2ccc(O)cc2O)oc2ccccc12`, the KSV in test [1] is 0.54 ×10⁵ /M. The Ka in test [2] came out at 0.75 ×10⁵ /M.
With `O=c1c(-c2ccc(O)cc2)coc2cc(O)ccc12`, the KSV in test [1] worked out at 0.58 ×10⁵ /M. Also, the Ka in test [2] is 1.13 ×10⁵ /M.
Consider `COc1ccc([C@@H]2CC(=O)c3c(O)cc(O)cc3O2)cc1O`, for which the KSV in test [1] worked out at 0.6 ×10⁵ /M. Also, in test [2], the Ka is 0.66 ×10⁵ /M.
Take `O=c1cc(-c2ccc(O)cc2)oc2cc(O)cc(O)c12`: in test [1], the KSV worked out at 1.15 ×10⁵ /M. Moreover, in test [2], the Ka turned out to be 1.13 ×10⁵ /M.

The values are drawn from ChEMBL document CHEMBL2385049, “The effects and mechanism of flavonoid-rePON1 interactions. Structure-activity relationship study” (Bioorg Med Chem, 2013).
